Patent US11547681B2, “N-acylethanolamide derivatives and uses thereof” (ELIEM THERAPEUTICS, INC., priority 2016, dated 2023)

Experiments:
[1] = Intestinal S9 fraction stability, rat
In short: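 LC-MS/MS tracked both dosed prodrug and expected drug PEA over 60 min (0, 10, 20, 30, 60 min samples) at 37 °C. Incubations held 1 μM test article in intestinal S9, cofactor-initiated after warm-up, stopped with ice-cold acidified acetonitrile.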

[2] = Intestinal S9 fraction stability, dog
In short: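 Percent remaining relative to time 0 and half-life (single-phase exponential fit) were derived from LC-MS/MS measurement of the dosed prodrug and its expected drug, PEA. Incubations contained 1 μM test article at 37 °C, were initiated with cofactor cocktail and were sampled up to 60 min.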

[3] = control compound, rat intestinal S9 fraction

For `C[C@]12CC[C@H]3[C@@H](CCC4=CC(=O)CC[C@@]43C)[C@@H]1CC[C@@H]2O` [Testosterone, testosterone, reference compound], the CLin [1, 3] was under 0.0116 ml/min/mg protein, the “CLin, calculated value in parentheses” value [1, 3] was 0.0068 ml/min/mg protein and the microsomal CLint ([1]; male, Sprague-Dawley, rat, s9, CLint (ml/min/mg protein), calculated value in parentheses, control compound, rat intestinal S9 fraction, calculated value beyond duration of experiment) was 6.52 µL/min/mg. The microsomal CLint ([1]; male, Sprague-Dawley, rat, s9, CLint (ml/min/mg protein), control compound, rat intestinal S9 fraction) was under 11.6 µL/min/mg, the microsomal CLint ([1]; male, Sprague-Dawley, rat, s9, CLint, Control Compound, Rat intestinal S9 fraction) was under 11.6 µL/min/mg and the microsomal CLint ([1]; male, Sprague-Dawley, rat, s9, CLint, Rat intestinal S9 fraction, control compound) was under 11.6 µL/min/mg. The microsomal CLint ([1]; male, Sprague-Dawley, rat, s9, Clint, control compound, Example 4 control run) was 5.97 µL/min/mg, the half-life ([1]; male, Sprague-Dawley, rat, s9, Half-life (min), calculated value in parentheses, control compound, rat intestinal S9 fraction, calculated value beyond duration of experiment) was 1.77 h and the half-life ([1]; male, Sprague-Dawley, rat, s9, Half-life (min), control compound, rat intestinal S9 fraction) was over 1 h. The half-life ([1]; male, Sprague-Dawley, rat, s9, Half-life, Control Compound, Rat intestinal S9 fraction) was over 1 h, the half-life at 1 μM ([1]; male, Sprague-Dawley, rat, s9, Half-life, Rat intestinal S9 fraction) was over 1 h and the half-life ([1]; male, Sprague-Dawley, rat, s9, Half-life, calculated value in parentheses, control compound, rat intestinal S9 fraction) was 1.7 h. For the same compound, the half-life ([1]; male, Sprague-Dawley, rat, s9, Half-life, control compound, Example 4 control run) was 1.93 h, the half-life ([1]; male, Sprague-Dawley, rat, s9, Half-life, control compound, rat intestinal S9 fraction) was over 1 h and the CLin ([2]; control compound, dog intestinal S9 fraction) was under 0.0116 ml/min/mg protein. It also gave a microsomal CLint ([2]; male, Beagle, dog, s9, CLint (ml/min/mg protein), calculated value in parentheses, control compound, dog intestinal S9 fraction, calculated value beyond duration of experiment) of 7.22 µL/min/mg, a microsomal CLint ([2]; male, Beagle, dog, s9, CLint (ml/min/mg protein), control compound, dog intestinal S9 fraction) of under 11.6 µL/min/mg and a microsomal CLint ([2]; male, Beagle, dog, s9, CLint, Control Compound, Dog intestinal S9 fraction) of under 11.6 µL/min/mg. For the same compound, the microsomal CLint ([2]; male, Beagle, dog, s9, CLint, Dog intestinal S9 fraction, control compound) was under 11.6 µL/min/mg, the half-life ([2]; male, Beagle, dog, s9, Half-life (min), calculated value in parentheses, control compound, dog intestinal S9 fraction, calculated value beyond duration of experiment) was 1.6 h and the half-life ([2]; male, Beagle, dog, s9, Half-life (min), control compound, dog intestinal S9 fraction) was over 1 h. It also gave a half-life ([2]; male, Beagle, dog, s9, Half-life, Control Compound, Dog intestinal S9 fraction) of over 1 h, a half-life at 1 μM ([2]; male, Beagle, dog, s9, Half-life, Dog intestinal S9 fraction) of over 1 h and a half-life ([2]; male, Beagle, dog, s9, Half-life, control compound, dog intestinal S9 fraction) of over 1 h.
